Like-named read-outs stand apart in the source and are kept apart here.
Key:
Pyricularia oryzae = assay type: cell-based; details: PO, 48 hours
Sclerotinia fructicola = assay: Mycelial growth test; assay type: cell-based; details: SF; for Percent Fungus Growth Inhibition: 72 hours; for inhibition at 5 ppm / inhibition at 10 ppm / inhibition at 20 ppm / inhibition at 40 ppm: Sclerotinia, 72 h, read-out: Percent Fungus Growth Inhibition
Description: | SF = Sclerotinia fructicola

Molecule | Spore Germination Rating (Pyricularia oryzae; 1.0 ppm) | Spore Germination Rating (Pyricularia oryzae; 2.5 ppm) | Spore Germination Rating (Pyricularia oryzae; 10 ppm) | Spore Germination Rating (Pyricularia oryzae; 40 ppm) | Percent Fungus Growth Inhibition (Sclerotinia fructicola; 5 ppm) [%] | Percent Fungus Growth Inhibition (Sclerotinia fructicola; 10 ppm) [%] | Percent Fungus Growth Inhibition (Sclerotinia fructicola; 20 ppm) [%] | Percent Fungus Growth Inhibition (Sclerotinia fructicola; 40 ppm) [%] | inhibition at 5 ppm (Sclerotinia fructicola; 5 ppm) [%] | inhibition at 10 ppm (Sclerotinia fructicola; 10 ppm) [%] | inhibition at 20 ppm (Sclerotinia fructicola; 20 ppm) [%] | inhibition at 40 ppm (Sclerotinia fructicola; 40 ppm) [%]
3-chloro-5-(bromophenoxy)-4H-1,2,6-thiadiazin-4-one [Compound 33] | 2 (40-60) | 0 (0-10) | 0 (0-10) | 0 (0-10) | 44 | 61 | 94 | 100 | – | – | – | –
O=c1c(Cl)nsnc1Oc1ccccc1 [Compound 2, 3-chloro-5-phenoxy-4H--1,2,6-thiadiazin-4-one] | 3 (60-80) | 1 (10-40) | 0 (0-10) | 0 (0-10) | – | – | – | – | 52 | 67 | 100 | 100
Cc1ccc(Oc2nsnc(Cl)c2=O)cc1 [Compound 3, 3-chloro-5-(4-methylphenoxy)-4H--1,2,6-thiadiazin-4-one] | 0 (0-10) | 4 (80-100) | 0 (0-10) | 0 (0-10) | – | – | – | – | 27 | 67 | 94 | 100
CC(C)(C)c1ccc(Oc2nsnc(Cl)c2=O)cc1 [Compound 4, 3-chloro-5-(4-tert-butylphnoxy)-4H--1,2,6-thiadiazin-4-one] | 4 (80-100) | 4 (80-100) | 0 (0-10) | 0 (0-10) | – | – | – | – | 0 | 0 | 4 | 0
COc1ccc(Oc2nsnc(Cl)c2=O)cc1 [Compound 5, 3-chloro-5-(4-methoxyphenoxy)4H--1,2,6-thiadiazin-4-one] | 4 (80-100) | 1 (10-40) | 0 (0-10) | 0 (0-10) | – | – | – | – | 27 | 42 | 67 | 73
CCCCOc1ccc(Oc2nsnc(Cl)c2=O)cc1 [Compound 6, 3-chloro-5-(4-n-butoxyphenoxy)-4H--1,2,6-thiadiazin-4-one] | 2 (40-60) | 1 (10-40) | 2 (40-60) | 0 (0-10) | – | – | – | – | 0 | 67 | 0 | 67
CCOC(=O)c1ccc(Oc2nsnc(Cl)c2=O)cc1 [Compound 7, 3-chloro-5-(4-ethoxycarbonylphenoxy)-4H--1,2,6-thiadiazin-4-one] | 1 (10-40) | 1 (10-40) | 1 (10-40) | 1 (10-40) | – | – | – | – | 54 | 100 | 100 | 100
CC(=O)Nc1ccc(Oc2nsnc(Cl)c2=O)cc1 [Compound 8, 5-(4-acetylaminophenoxy)-3-chloro-4H--1,2,6-thiadiazin-4-one] | 4 (80-100) | 3 (60-80) | 0 (0-10) | 0 (0-10) | – | – | – | – | 0 | 0 | 51 | 60
O=c1c(Cl)nsnc1Oc1ccc([N+](=O)[O-])cc1 [Compound 9, 3-chloro-5-(4-nitrophenoxy)-4H--1,2,6-thiadiazin-4-one] | 0 (0-10) | 0 (0-10) | 0 (0-10) | 0 (0-10) | – | – | – | – | 58 | 76 | 100 | 100
N#Cc1ccc(Oc2nsnc(Cl)c2=O)cc1 [Compound 10, 3-chloro-5-(4-cyanophenoxy)-4H--1,2,6-thiadiazin-4-one] | 0 (0-10) | 0 (0-10) | 0 (0-10) | 0 (0-10) | – | – | – | – | – | 33 | 100 | 100
O=c1c(Cl)nsnc1Oc1ccc(F)cc1 [Compound 11, 3-chloro-5-(4-fluorophenoxy)-4H--1,2,6-thiadiazin-4-one] | 3 (60-80) | 0 (0-10) | 0 (0-10) | 0 (0-10) | – | – | – | – | 100 | 100 | 100 | 100
O=c1c(Cl)nsnc1Oc1ccc(Cl)cc1 [Compound 12, 3-chloro-5-(4-chlorophenoxy)-4H--1,2,6-thiadiazin-4-one] | 0 (0-10) | 0 (0-10) | 0 (0-10) | 0 (0-10) | – | – | – | – | 64 | 82 | 100 | 100
O=c1c(Cl)nsnc1Oc1cccc(Cl)c1 [Compound 13, 3-chloro-5-(3-chlorophenoxy)-4H--1,2,6-thiadiazin-4-one] | 3 (60-80) | 0 (0-10) | 0 (0-10) | 0 (0-10) | – | – | – | – | 51 | 67 | 100 | 100
O=c1c(Cl)nsnc1Oc1ccccc1Cl [Compound 14, 3-chloro-5-(2-chlorophenoxy)-4H--1,2,6-thiadiazin-4-one] | 3 (60-80) | 0 (0-10) | 0 (0-10) | 0 (0-10) | – | – | – | – | 47 | 64 | 87 | 100
O=c1c(Cl)nsnc1Oc1ccc(Br)cc1 [Compound 15, 3-chloro-5-(4-bromophenoxy)-4H--1,2,6-thiadiazin-4-one] | 0 (0-10) | 1 (10-40) | 0 (0-10) | 0 (0-10) | – | – | – | – | 92 | 83 | 83 | 88
O=c1c(Cl)nsnc1Oc1ccc(Cl)c(Cl)c1 [Compound 16, 3-chloro-5-(3,4-dichlorophenoxy)-4H--1,2,6-thiadiazin-4-one] | 0 (0-10) | 0 (0-10) | 0 (0-10) | 0 (0-10) | – | – | – | – | 64 | 67 | 67 | 67
O=c1c(Cl)nsnc1Oc1ccc(Cl)cc1Cl [Compound 17, 3-chloro-5-(2,4-dichlorophenoxy)-4H--1,2,6-thiadiazin-4-one] | 0 (0-10) | 0 (0-10) | 0 (0-10) | 0 (0-10) | – | – | – | – | 62 | 76 | 96 | 100
O=c1c(Cl)nsnc1Oc1c(Cl)cccc1Cl [Compound 18, 3-chloro-5-(2,6-dichlorophenoxy)-4H--1,2,6-thiadiazin-4-one] | 4 (80-100) | 2 (40-60) | 0 (0-10) | 0 (0-10) | – | – | – | – | 51 | 64 | 89 | 100
O=c1c(Cl)nsnc1Oc1cccc(Cl)c1Cl [Compound 19, 3-chloro-5-(2,3-dichlorophenoxy)-4H--1,2,6-thiadiazin-4-one] | 3 (60-80) | 0 (0-10) | 0 (0-10) | 0 (0-10) | – | – | – | – | 64 | 76 | 100 | 100
O=c1c(Cl)nsnc1Oc1cc(Cl)cc(Cl)c1 [Compound 20, 3-chloro-5-(3,5-dichlorophenoxy)-4H--1,2,6-thiadiazin-4-one] | 1 (10-40) | 0 (0-10) | 0 (0-10) | 0 (0-10) | – | – | – | – | 60 | 73 | 84 | 87
Cc1cccc(Oc2nsnc(Cl)c2=O)c1 [Compound 21, 3-chloro-5-(3-methylphenoxy)-4H--1,2,6-thiadiazin-4-one] | 4 (80-100) | 0 (0-10) | 0 (0-10) | 0 (0-10) | – | – | – | – | 100 | 100 | 100 | 100
Cc1ccccc1Oc1nsnc(Cl)c1=O [Compound 22, 3-chloro-5-(2-methylphenoxy)-4H--1,2,6-thiadiazin-4-one] | 2 (40-60) | 0 (0-10) | 0 (0-10) | 0 (0-10) | – | – | – | – | 24 | 100 | 100 | 100
Cc1ccc(Oc2nsnc(Cl)c2=O)c(C)c1 [Compound 23, 3-chloro-5-(2,4-dimethylphenoxy)-4H--1,2,6-thiadiazin-4-one] | 4 (80-100) | 0 (0-10) | 0 (0-10) | 0 (0-10) | – | – | – | – | 82 | 100 | 100 | 100
Cc1cccc(C)c1Oc1nsnc(Cl)c1=O [Compound 24, 3-chloro-5-(2,6-dimethylphenoxy)-4H--1,2,6-thiadiazin-4-one] | 3 (60-80) | 0 (0-10) | 0 (0-10) | 0 (0-10) | – | – | – | – | 100 | 100 | 100 | 100
Cc1cc(C)cc(Oc2nsnc(Cl)c2=O)c1 [Compound 25, 3-chloro-5-(3,5-dimethylphenoxy)-4H--1,2,6-thiadiazin-4-one] | 3 (60-80) | 0 (0-10) | 0 (0-10) | 0 (0-10) | – | – | – | – | 82 | 100 | 100 | 100
Nc1ccc(Oc2nsnc(Cl)c2=O)cc1 [Compound 26, 5-(4-aminophenoxy)-3-chloro-4H--1,2,6-thiadiazin-4-one] | 4 (80-100) | 2 (40-60) | 0 (0-10) | 0 (0-10) | 17 | 66 | – | – | – | – | – | 100

Reference: patent US4450269A, “Mono-5-substituted-3-chloro-4H-1,2,6-thiadiazin-4-one antifungal agents” (FMC Corporation, priority 1980, dated 1984)
